# Measurements taken from publication PMC6980832, “Crystal structures of Triosephosphate Isomerases from Taenia solium and Schistosoma mansoni provide insights for vaccine rationale and drug design against helminth parasites” (PLoS Neglected Tropical Diseases, 2020).
# Key:
# SmTPI = target: T1, SmTPI (Schistosoma mansoni, UniProt P48501); test: X-ray crystal structure of the complex; type: binding; settings: co-crystallised with 10 mM 2-PGA; active site, closed loop 6; 2.3 Å; bound in all 8 monomers
# T1 construct: gene TPI; full length, codon-optimised synthetic gene, E. coli tpi-null strain, modified pET19; extra Gly-Pro-His before Met1; homodimer about 50 kDa
# TsTPI = target: T2, TsTPI (Taenia solium, UniProt Q9GTX8); test: X-ray crystal structure of the complex; type: binding; settings: co-crystallised with 10 mM 2-PGA; active site, closed loop 6; 2.1 Å
# T2 construct: full length, codon-optimised synthetic gene, E. coli tpi-null strain, modified pET19; extra Gly-Pro-His before Met1; homodimer
# T2 sequence (Q9GTX8 whole entry): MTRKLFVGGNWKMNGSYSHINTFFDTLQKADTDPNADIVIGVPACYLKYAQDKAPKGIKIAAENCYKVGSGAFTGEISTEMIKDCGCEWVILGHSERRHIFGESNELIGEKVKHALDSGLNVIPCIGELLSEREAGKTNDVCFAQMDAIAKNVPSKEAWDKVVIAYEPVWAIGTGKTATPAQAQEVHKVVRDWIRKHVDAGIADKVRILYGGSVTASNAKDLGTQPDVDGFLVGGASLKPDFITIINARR
# T1 sequence (P48501 whole entry): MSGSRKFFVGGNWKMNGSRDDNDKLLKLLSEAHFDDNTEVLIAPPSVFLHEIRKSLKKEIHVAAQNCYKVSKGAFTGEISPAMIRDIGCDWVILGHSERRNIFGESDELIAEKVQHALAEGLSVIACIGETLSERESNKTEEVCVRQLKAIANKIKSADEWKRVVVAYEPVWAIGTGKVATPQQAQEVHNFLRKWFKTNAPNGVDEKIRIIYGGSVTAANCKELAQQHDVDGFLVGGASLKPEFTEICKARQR
smiles,measurement,setting,value
"O=C(O)[C@@H](CO)OP(=O)(O)O [2-PGA, 2-phosphoglyceric acid]",X-ray crystal structure of the complex,SmTPI,We solved the crystal structures of TsTPI and SmTPI in complex with the inhibitor 2-PGA
same,X-ray crystal structure of the complex,TsTPI,We solved the crystal structures of TsTPI and SmTPI in complex with the inhibitor 2-PGA
